{"source": "patent US20150224164A1", "about": "“TREATMENT OF AUTISM SPECTRUM DISORDERS USING GLYCYL-L-2-METHYLPROLYL-L-GLUMATIC ACID” (Neuren Pharmaceuticals Limited, priority 2013, published 2015)", "key": {"[1]": {"tested_on": "central nervous system", "conditions": "after oral administration; cited from earlier work"}, "[2]": {"tested_on": "MeCP2 deficient mice", "experiment": "Seizure activity, electroencephalographic recordings (Example 12)", "conditions": "mouse, in vivo", "source_text": "Electroencephalograpic recordings of wild-type mice and MeCP2 deficient mice treated with either saline or G-2-MePE are obtained using methods described in U.S. Pat. No. 7,714,020."}, "[3]": {"tested_on": "RTT iPSC-derived neurons", "experiment": "In vitro human model of Rett Syndrome, iPSC-derived neurons (Example 14)", "type": "cell-based", "conditions": "1 nM-10 μM for 1 week", "protocol": "RTT fibroblasts (carrying 4 distinct MeCP2 mutations) and control fibroblasts are generated from explants of dermal biopsies. The shRNA against target MeCP2 gene is cloned into the LentiLox3.7 lentivirus vector (as described in Marchetto et al.). The fibroblasts are infected with retroviral reprogramming vectors (Sox2, Oct4, c-Myc and Klf4). Two days after infection, fibroblasts are plated on mitotically inactivated mouse embryonic fibroblasts with hESC medium. After 2 weeks, iPSC colonies that emerge from the background of fibroblasts are manually picked and transferred to feeder-free conditions on matrigel-coated dishes (BD) using embryonic stem cell culture media mTeSR™ (Stem Cell Technologies) and passaged manually. Gene expression profiles of the generated clones are measured using human genome Affymetrix Gene Chip™ arrays to confirm that reprogramming is successful. […]\nCells are fixed in 4% paraformaldehyde and permeabilized with 0.5% Triton-X100 in PBS. […] Fluorescent signals are detected using a Zeiss inverted microscope and images are processed with Photoshop CS3. The following primary antibodies are used: TRA-1-60, TRA-1-81 (1:100), Nanog and Lin28 (1:500), human Nestin (1:100), Tuj-1 (1:500), Map2 (1:100); meCP2 (1:1000; VGLUT1 (1:200), Psd95 (1:500), GFP (1:200), Sox1 (1:250), Mushasil (1:200) and me3H3K27 (1:500). Cell soma size is measured using suitable software (e.g. ImageJ) after identification of neurons using the Syn::EGFP™. The morphologies of neuronal dendrites and spines are studied from an individual projection of z-stacks optical sections and scanned at 0.5 um increments that correlate with the resolution valued at z-plane. Each optical section is the result of 3 scans at 500 lps followed by Kalman filtering. For synapse quantification, images are taken by a z-step of 1 um using Biorad radiance 2100™ confocal microscope. Synapse quantification is done blinded to genotype. Only VGLUT1 puncta along Map2-positive processes are counted. […]"}, "[4]": {"tested_on": "hippocampal slices of heterozygous Shank3-deficient mice", "experiment": "Hippocampal slice electrophysiology, Shank3-deficient mice (Example 13)", "type": "in vivo, mouse", "conditions": "15 or 60 mg/kg oral b.i.d. 14 days", "protocol": "1 to 3 month old wild type and heterozygous Shank3-deficient mice are divided into 4 treatment groups: placebo treated wild-type, placebo treated Shank3-deficient group and two Shank3-deficient G-2-MePE treated groups. The animals are given placebo (water) or G-2-MePE formulated in water administered orally, b.i.d for 14 days. G-2-MePE is administered at two doses: 15 or 60 mg/kg.\nPost-mortem, acute hippocampal slices (350 μm) are prepared from mice using a tissue chopper. Slices are maintained and experiments are conducted at 32° C. Slices are perfused with Ringer's solution containing (in mM): NaCl, 125.0; KCl, 2.5; MgSO4, 1.3; NaH2PO4, 1.0; NaHCO3, 26.2; CaCl2, 2.5; glucose, 11.0. […] Slices are maintained for 1 hr prior to establishment of a baseline of field excitatory postsynaptic potentials (fEPSPs) recorded from stratum radiatum in area CA1, evoked by stimulation of the Schaffer collateral-commissural afferents (100 μs pulses every 30 s) with bipolar tungsten electrodes placed into area CA3. […] The EPSP initial slope (mV/ms) is determined from the average waveform of four consecutive responses. […] AMPA receptor-mediated and NMDA receptor-mediated I/O relationships are measured in the presence of ionotropic glutamate receptor antagonists: […] APV (50 μM) and 6-cyano-7-nitroquinoxaline-2,3-dione CNQX (100 μM). […]"}}, "note": "Where a SMILES comes first, the peptide text is derived from it.", "data": [{"smiles": "C[C@@]1(C(=O)N[C@@H](CCC(=O)O)C(=O)O)CCCN1C(=O)CN", "note": "[Example G-2-MePE, Glycyl-L-2-methylprolyl-L-glutamic acid] (HELM PEPTIDE1{G.[C[C@@]1(C(=O)[*:2])CCCN1[*:1]].E}$$$$V2.0)", "values": [{"measurement": "activity in the central nervous system", "setting": "[1]", "result": "active in the central nervous system"}, {"measurement": "motor seizures and non-convulsive seizures", "setting": "[2]", "result": "effective in decreasing both motor seizures and non-convulsive seizures"}, {"measurement": "frequency and amplitude of spontaneous post-synaptic currents, frequency of calcium transients", "setting": "[3]", "result": "normalizes"}, {"measurement": "glutamatergic synapse numbers", "setting": "[3]", "result": "significant increase"}, {"measurement": "VGLUT1 puncta number", "setting": "[3]; all concentrations", "result": "increase VGLUT1 puncta number"}, {"measurement": "AMPA receptor-mediated field potentials, slope of I/O function", "setting": "[4]", "result": "normalizes"}, {"measurement": "hippocampal LTP and its maintenance", "setting": "[4]", "result": "increased hippocampal long-term potentiation"}]}]}
